One data set relates to FIPV 3CLpro. The arrangement: method as in PMID 30342822. The following applies: FRET assay; read-out: IC50 against FIPV 3CLpro; cited from earlier work.
Data set [1] can be described thus: Cytotoxicity assay (CytoTox 96, lactate dehydrogenase release). In kind it is cell-based. The following applies: human, 293T cells, up to 100 μM. As to the method: To determine the cytotoxicity of the compounds, 70 to 80% confluent 293T cells in a 96-well plate were incubated with serial dilutions of each compound (up to 100 μM) for 5 h. Cell cytotoxicity was determined by a CytoTox 96 nonradioactive assay kit (Promega, Madison, WI) by measuring a cytosolic enzyme lactate dehydrogenase, which is released upon cell lysis, following the manufacturer’s instructions, and the 50% cytotoxic concentration (CC50) value for each compound was calculated using GraphPad Prism software. The nonspecific cytotoxic effects of these compounds were also reported previously ([30], [31], [40], [43], [44]).

In the next data set the target is GI.3P-GI.2 TX1 3CLpro (Rabbit hemorrhagic disease virus 2, UniProt A0A7M4BDB7). The experiment in a line: FRET assay, 3CLpro of GI.3P-GI.2 TX1 strain. In kind it is biochemical, GI.3P-GI.2 (RHDV2/b). The following applies: 30 min preincubation with 3CLpro, 30 min with substrate, mean ± SEM, at least three experiments.
The next data set deals with GI.1c/RHDV FRG 3CLpro (Rabbit hemorrhagic disease virus, UniProt P27410). Nature of the data set: FRET assay, 3CLpro of GI.1c/RHDV FRG strain. The following applies: 30 min preincubation with 3CLpro, 30 min with substrate, mean ± SEM, at least three experiments, read-out: IC50 GI.Ic/RHDV FRG. It counts as biochemical.
Chain of GI.1c/RHDV FRG 3CLpro (P27410 1109-1251 limits assumed): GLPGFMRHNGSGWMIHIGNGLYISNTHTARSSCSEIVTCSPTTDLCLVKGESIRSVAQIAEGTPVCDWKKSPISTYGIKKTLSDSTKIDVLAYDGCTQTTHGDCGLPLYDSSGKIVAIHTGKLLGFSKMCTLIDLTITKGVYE
The test system of the next data set is FIP. The arrangement: method as in PMID 27027316, PMID 28901812. The following applies: cited from earlier work.
Another data set deals with GII.1/EBHSV G104 3CLpro (European brown hare syndrome virus, UniProt Q96725). Nature of the data set: FRET assay, 3CLpro of GII.1/EBHSV G104 strain. In kind it is biochemical.
Chain of GII.1/EBHSV G104 3CLpro (Q96725 1102-1244 limits assumed): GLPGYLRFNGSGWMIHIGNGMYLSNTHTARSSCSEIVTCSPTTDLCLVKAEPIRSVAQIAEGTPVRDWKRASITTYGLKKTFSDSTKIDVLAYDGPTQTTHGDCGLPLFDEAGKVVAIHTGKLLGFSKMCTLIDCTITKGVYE
The target of a further data set is T1, 3CLpro of GI.3P-GI.2 TX1 (Rabbit hemorrhagic disease virus 2, UniProt A0A7M4BDB7).
T1 sequence (A0A7M4BDB7 1109-1251): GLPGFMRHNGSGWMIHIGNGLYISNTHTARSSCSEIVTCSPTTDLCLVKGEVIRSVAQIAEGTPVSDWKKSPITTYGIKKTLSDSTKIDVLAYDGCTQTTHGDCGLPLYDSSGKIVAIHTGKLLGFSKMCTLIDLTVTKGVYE
Nature of the data set: cell-based. The arrangement: species or system GI.3P-GI.2 (RHDV2/b).

A further data set relates to murine norovirus. The arrangement: method as in PMID 25761614. The following applies: intestinal tracts of mice; cited from earlier work.

Each structure is given as a SMILES string.

Turning to `CC(C)C[C@H](NC(=O)OCc1ccccc1)C(=O)N[C@H](C[C@@H]1CCNC1=O)C(O)S(=O)(=O)O` (stereo partly shown) [GC376], the IC50 in the data set on FIPV 3CLpro is 500 nM; on GI.3P-GI.2 TX1 3CLpro, 1390 nM; at GI.1c/RHDV FRG 3CLpro, 1210 nM; on GII.1/EBHSV G104 3CLpro, 1000 nM. The CC50 at 5 h in data set [1] was > 100000 nM. Moreover, in the data set on FIP, the “in vivo efficacy in cats with FIP” value was “reduced viral replication and improved survival”. For the same compound, the response at 3CLpro of GI.3P-GI.2 TX1 was half-maximal at 5350 ± 140 nM (EC50).

In the case of `O=C[C@@H](C[C@@H]1CCNC1=O)NC(=O)[C@H](CC1CCCCC1)NC(=O)OCc1ccccc1` [GC543], the half-maximal cytotoxic concentration (CC50) at 5 h in data set [1] is > 100000 nM. Moreover, the IC50 against GI.3P-GI.2 TX1 3CLpro came out at 120 ± 70 nM; on GI.1c/RHDV FRG 3CLpro, 90 ± 30 nM; on GII.1/EBHSV G104 3CLpro it was 70 ± 10 nM. The compound also came in with an EC50 at 3CLpro of GI.3P-GI.2 TX1 of 550 ± 60 nM.

With `O=C[C@@H](C[C@@H]1CCNC1=O)NC(=O)[C@H](CC1CCCCC1)NC(=O)OCc1cccc(Cl)c1` [GC583], the 50% cytotoxic concentration (CC50) at 5 h in data set [1] was > 100000 nM. In addition, in the data set on murine norovirus, the “in vivo efficacy, murine norovirus replication” value is “significantly decreasing murine norovirus replication in the intestinal tracts of mice without toxicity”. Further, the IC50 at GI.3P-GI.2 TX1 3CLpro stood at 100 ± 80 nM; on GI.1c/RHDV FRG 3CLpro, 80 ± 20 nM; against GII.1/EBHSV G104 3CLpro, 50 ± 10 nM. This compound registered an EC50 on 3CLpro of GI.3P-GI.2 TX1 of 460 ± 50 nM.

Turning to `O=C(N[C@@H](CC1CCCCC1)C(=O)N[C@H](C[C@@H]1CCNC1=O)C(=O)C(=O)NC1CC1)OCc1cccc(Cl)c1` [GC591], the cytotoxic concentration (CC50) at 5 h in data set [1] is > 100000 nM. Also, the IC50 against GI.3P-GI.2 TX1 3CLpro was 730 ± 270 nM; on GI.1c/RHDV FRG 3CLpro, 590 ± 40 nM; at GII.1/EBHSV G104 3CLpro it was 430 ± 70 nM. Further, on 3CLpro of GI.3P-GI.2 TX1, the concentration for a half-maximal effect (EC50) was 9800 ± 1260 nM.

In the case of `CC(C)CC(NC(=O)C(Cc1cccc2ccccc12)NC(=O)OCc1ccccc1)C(=O)NC(C=O)CC1CCNC1=O` (stereo not shown) [NPI52], the CC50 at 5 h in data set [1] was > 100000 nM. Further, the IC50 against GI.3P-GI.2 TX1 3CLpro worked out at 570 ± 360 nM; at GI.1c/RHDV FRG 3CLpro, 310 ± 20 nM; against GII.1/EBHSV G104 3CLpro it was 300 ± 90 nM. Moreover, on 3CLpro of GI.3P-GI.2 TX1, the EC50 amounted to 4000 ± 430 nM.

A word on the CC50: it is the concentration at which the toxic effect on the cells reaches its halfway point. Usually EC50 stands for the midpoint of the concentration-response curve. Lower therefore signals an effect from little substance.

(Values after paper PMC9430360 (Microbiology Spectrum, 2022).)
